#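 Here, GI50 denotes the concentration required for 50% inhibition of growth. TGI: concentration producing complete growth inhibition.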
# Columns and labels:
# Experiment in all cases: NCI-60 cell line screen, 384-well format
# NCI-H522 lung = system: NCI-H522 lung
# NCI-H460 NSCLC = system: NCI-H460 NSCLC
# SK-OV-3 ovarian = system: SK-OV-3 ovarian
# RPMI-8226 leukemia = system: RPMI-8226 leukemia
# SF-539 CNS = system: SF-539 CNS
# SW-620 colon = system: SW-620 colon
# NCI-H322M lung = system: NCI-H322M lung
# LOX IMVI melanoma = system: LOX IMVI melanoma
# HT29 colon = system: HT29 colon
# SNB-75 CNS = system: SNB-75 CNS
# RXF 393 renal = system: RXF 393 renal
# MCF7 breast = system: MCF7 breast
# HOP-62 NSCLC = system: HOP-62 NSCLC
# OVCAR-8 ovarian = system: OVCAR-8 ovarian
# DU-145 prostate = system: DU-145 prostate
# NCI-H226 lung = system: NCI-H226 lung
# SR leukemia = system: SR leukemia
# OVCAR-4 ovarian = system: OVCAR-4 ovarian
# MALME-3M melanoma = system: MALME-3M melanoma
# HCT-15 colon = system: HCT-15 colon
# SK-MEL-5 melanoma = system: SK-MEL-5 melanoma
# SK-MEL-2 melanoma = system: SK-MEL-2 melanoma
# U251 glioblastoma = system: U251 glioblastoma
# SNB-19 CNS = system: SNB-19 CNS
# SN12C renal = system: SN12C renal
# EKVX NSCLC = system: EKVX NSCLC
# TK-10 renal = system: TK-10 renal
# COLO 205 colon = system: COLO 205 colon
# UACC-62 melanoma = system: UACC-62 melanoma
# M14 melanoma = system: M14 melanoma
compound,measurement,setting,value
Cn1cc(-c2ccc(-c3ccc(C4=NC5(CC5)C(=O)N4C[C@@H]4CCN(C(=O)C5CC5)C4)cc3)cc2)cn1,GI50,NCI-H522 lung,12.6 µM
same,TGI,NCI-H522 lung,29.6 µM
same,GI50,NCI-H460 NSCLC,1.21 µM
same,TGI,NCI-H460 NSCLC,2.97 µM
same,GI50,SK-OV-3 ovarian,30 µM
same,TGI,SK-OV-3 ovarian,> 89.9 µM
same,TGI,RPMI-8226 leukemia,9.91 µM
same,GI50,SF-539 CNS,13.7 µM
same,TGI,SF-539 CNS,> 56.4 µM
same,GI50,SW-620 colon,19.4 µM
same,TGI,SW-620 colon,> 67.9 µM
same,GI50,NCI-H322M lung,20 µM
same,TGI,NCI-H322M lung,75.5 µM
same,GI50,LOX IMVI melanoma,2.48 µM
same,TGI,LOX IMVI melanoma,14 µM
same,GI50,HT29 colon,28.1 µM
same,TGI,HT29 colon,> 100 µM
same,GI50,SNB-75 CNS,21.5 µM
same,TGI,SNB-75 CNS,> 87.7 µM
same,GI50,RXF 393 renal,14.4 µM
same,TGI,RXF 393 renal,40.7 µM
same,GI50,MCF7 breast,3.21 µM
same,TGI,MCF7 breast,> 100 µM
same,GI50,HOP-62 NSCLC,8.82 µM
same,TGI,HOP-62 NSCLC,26.4 µM
same,GI50,OVCAR-8 ovarian,13.4 µM
same,TGI,OVCAR-8 ovarian,41.6 µM
same,GI50,DU-145 prostate,14.6 µM
same,TGI,DU-145 prostate,59.6 µM
same,GI50,NCI-H226 lung,19 µM
same,TGI,NCI-H226 lung,97.2 µM
same,GI50,SR leukemia,0.0145 µM
same,TGI,SR leukemia,0.0828 µM
same,GI50,OVCAR-4 ovarian,8.64 µM
same,TGI,OVCAR-4 ovarian,59.1 µM
same,GI50,MALME-3M melanoma,23 µM
same,TGI,MALME-3M melanoma,65.1 µM
same,GI50,HCT-15 colon,5.68 µM
same,TGI,HCT-15 colon,> 62.9 µM
same,GI50,SK-MEL-5 melanoma,15.5 µM
same,TGI,SK-MEL-5 melanoma,37 µM
same,GI50,SK-MEL-2 melanoma,21.9 µM
same,TGI,SK-MEL-2 melanoma,41.8 µM
same,GI50,U251 glioblastoma,10.2 µM
same,TGI,U251 glioblastoma,38.1 µM
same,GI50,SNB-19 CNS,26.4 µM
same,TGI,SNB-19 CNS,> 90.1 µM
same,GI50,SN12C renal,17.1 µM
same,TGI,SN12C renal,83.8 µM
same,GI50,EKVX NSCLC,33.3 µM
same,TGI,EKVX NSCLC,98.2 µM
same,GI50,TK-10 renal,27.5 µM
same,TGI,TK-10 renal,> 100 µM
same,GI50,COLO 205 colon,25.7 µM
same,TGI,COLO 205 colon,> 100 µM
same,GI50,UACC-62 melanoma,8.91 µM
same,TGI,UACC-62 melanoma,22.5 µM
same,GI50,M14 melanoma,24.7 µM
same,TGI,M14 melanoma,> 79.5 µM

# From PubChem BioAssay (NCI)
